7 compounds from the Kinase Knowledgebase extract (Sharma et al. 2016) can be followed below.

In assay [1] the target is CDK2 (human) (UniProt P24941). In words: Cell-Based Assay. The following applies: hdf.
Assay [2] deals with CDK2 (human) (UniProt P24941). Put plainly: Cell-Based Assay. The following applies: rko.
For another assay, the target named is CDK2 (UniProt P24941). Put plainly: Enzyme Assay.
The target of assay [3] is CDK2 (human) (UniProt P24941). In words: Cell-Based Assay.

With `CCC(C)Cc1cccc2c1C(=NNc1ccc(S(N)(=O)=O)cc1)C(=O)N2` (stereo not given), the IC50 at CDK2 (human) [1] is greater than 5 µM; against CDK2 (human) [2], 1100 to 5000 nM; at CDK2, 1 to 10 nM; on CDK2 (human) [3] (hdf-3), 1100 to 5000 nM.
Turning to `CNS(=O)(=O)Cc1ccc(NN=C2C(=O)Nc3cc(C)c(O)c(C)c32)cc1`, the IC50 against CDK2 (human) [1] is greater than 5 µM; at CDK2 (human) [2], 100 to 500 nM; against CDK2 it was 51 to 100 nM; on CDK2 (human) [3] (hdf), 600 to 1000 nM; against CDK2 (human) [3] (hdf-3), 1100 to 5000 nM; against CDK2 (human) [3] (mes/sa) it was greater than 5000 nM. In addition, the IC50 on CDK2 (human) [3] (rko) was 100 to 500 nM.
For `CNS(=O)(=O)Cc1ccc(NN=C2C(=O)Nc3ccc4ncccc4c32)cc1`, the IC50 is greater than 5 µM against CDK2 (human) [1]; 1100 to 5000 nM against CDK2 (human) [2]; 1 to 10 nM on CDK2; greater than 5000 nM against CDK2 (human) [3] (hdf); 1100 to 5000 nM at CDK2 (human) [3] (hdf-3); greater than 5000 nM at CDK2 (human) [3] (rko).
Turning to `CS(=O)(=O)Cc1ccc(N/C=C2\C(=O)Nc3ccc4ncsc4c32)cc1`, the IC50 at CDK2 (human) [1] was greater than 5 µM; at CDK2 (human) [2] it was 1100 to 5000 nM; against CDK2, 11 to 50 nM; on CDK2 (human) [3] (hdf) it was greater than 5000 nM; on CDK2 (human) [3] (hdf-3), 1100 to 5000 nM; on CDK2 (human) [3] (mes/sa), 1100 to 5000 nM. On CDK2 (human) [3] (rko), this compound had an IC50 greater than 5000 nM.
Turning to `NS(=O)(=O)c1ccc(NN=C2C(=O)Nc3ccc(-c4cnco4)cc32)cc1`, the IC50 against CDK2 (human) [1] is greater than 5 µM; at CDK2 (human) [2], 600 to 1000 nM; on CDK2, 1 to 10 nM; at CDK2 (human) [3] (hdf) it was 1100 to 5000 nM; against CDK2 (human) [3] (hdf-3), 600 to 1000 nM; against CDK2 (human) [3] (mda-mb-468), 600 to 1000 nM. Also, the IC50 against CDK2 (human) [3] (mes/sa) lay in the range of 100 to 500 nM; at CDK2 (human) [3] (rko), 600 to 1000 nM.
For the compound `O=C1Nc2ccc3ncsc3c2/C1=C/Nc1ccc2nn[nH]c2c1`, the concentration for half-maximal inhibition (IC50) against CDK2 (human) [1] is greater than 5 µM; against CDK2 (human) [2], greater than 5000 nM; against CDK2, 11 to 50 nM; against CDK2 (human) [3] (hdf), greater than 5000 nM; on CDK2 (human) [3] (hdf-3), greater than 5000 nM; at CDK2 (human) [3] (mda-mb-468), 1100 to 5000 nM.
In the case of `CN(C)S(=O)(=O)c1ccc(N/C=C2\C(=O)Nc3ccc(-c4cnco4)cc32)cc1`, the IC50 at CDK2 (human) [1] is greater than 5 µM; on CDK2 (human) [2], 1100 to 5000 nM; against CDK2, 1 to 10 nM; at CDK2 (human) [3] (hdf-3) it was greater than 5000 nM; against CDK2 (human) [3] (mda-mb-468), greater than 5000 nM; against CDK2 (human) [3] (mes/sa), greater than 5000 nM. The compound further came in with an IC50 on CDK2 (human) [3] (rko) of 1100 to 5000 nM.

Broadly, the IC50 is the concentration at which inhibition is half-maximal. A higher IC50 goes with weaker potency.
